PMC8759733 (Journal of Enzyme Inhibition and Medicinal Chemistry, 2021)
Entries after “also recorded” stand apart in the source; their conditions may differ.

Columns and labels:
[1] = target: Acetylcholinesterase (AChE) (Electrophorus electricus, UniProt O42275); experiment: Cholinesterase inhibition activity assay; type: biochemical; details: for inhibition at 1 µg/mL: read-out: Percentage of AChE inhibition at 1 µg/mL
[2] = target: butyrylcholinesterase (BChE) (Equus caballus, UniProt P81908); experiment: Cholinesterase inhibition activity assay; type: biochemical, Equine serum; details: read-out: BChE Percentage of inhibition at 4 µg/mL
Sequence of butyrylcholinesterase (BChE) (P81908 whole entry): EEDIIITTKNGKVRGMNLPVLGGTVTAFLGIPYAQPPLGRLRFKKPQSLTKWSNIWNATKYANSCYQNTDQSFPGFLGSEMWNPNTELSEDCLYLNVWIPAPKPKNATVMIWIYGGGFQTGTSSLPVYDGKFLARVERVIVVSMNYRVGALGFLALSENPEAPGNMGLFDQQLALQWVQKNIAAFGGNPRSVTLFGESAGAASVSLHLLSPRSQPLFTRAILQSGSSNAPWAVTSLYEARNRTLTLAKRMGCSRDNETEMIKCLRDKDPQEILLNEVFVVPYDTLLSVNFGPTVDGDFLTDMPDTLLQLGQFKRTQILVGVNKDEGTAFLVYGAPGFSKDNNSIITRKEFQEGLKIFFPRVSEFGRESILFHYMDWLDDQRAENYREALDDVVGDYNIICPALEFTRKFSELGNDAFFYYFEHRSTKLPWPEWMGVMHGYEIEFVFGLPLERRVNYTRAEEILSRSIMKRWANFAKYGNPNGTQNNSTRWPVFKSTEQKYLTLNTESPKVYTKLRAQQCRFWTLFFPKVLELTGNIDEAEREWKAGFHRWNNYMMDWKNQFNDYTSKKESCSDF

[3] = target: AChE (Electrophorus electricus, UniProt O42275); experiment: AChE enzyme kinetic study; type: biochemical; details: substrate ATCI 0.43-6.90 mM; Lineweaver-Burk plot
Sequence of AChE (O42275 24-633): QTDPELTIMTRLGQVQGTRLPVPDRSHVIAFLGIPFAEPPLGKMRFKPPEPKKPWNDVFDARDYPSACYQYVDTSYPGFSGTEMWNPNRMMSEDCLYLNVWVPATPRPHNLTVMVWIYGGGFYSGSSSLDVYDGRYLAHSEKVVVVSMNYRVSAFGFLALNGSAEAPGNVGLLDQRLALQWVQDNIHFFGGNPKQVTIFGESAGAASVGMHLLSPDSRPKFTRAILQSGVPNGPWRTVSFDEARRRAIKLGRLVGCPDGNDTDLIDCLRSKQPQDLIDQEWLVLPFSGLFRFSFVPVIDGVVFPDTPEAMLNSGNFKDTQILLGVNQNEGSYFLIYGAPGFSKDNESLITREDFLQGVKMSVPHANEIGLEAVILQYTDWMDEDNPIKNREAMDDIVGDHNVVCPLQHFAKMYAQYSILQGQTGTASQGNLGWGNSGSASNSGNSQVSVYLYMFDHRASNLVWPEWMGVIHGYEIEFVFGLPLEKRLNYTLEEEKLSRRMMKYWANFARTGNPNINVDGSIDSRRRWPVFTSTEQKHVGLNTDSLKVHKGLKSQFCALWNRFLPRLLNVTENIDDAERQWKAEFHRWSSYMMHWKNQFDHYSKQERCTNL

Sequence of Acetylcholinesterase (AChE) (O42275 24-633): as above

SMILES	IC50 [1]	inhibition at 4 µg/mL [2]	inhibition at 1 µg/mL [1]	Mode of AChE inhibition [3]
CCC#CCOc1ccc2c(=O)c3ccccc3oc2c1 [Compound 19, 3-(Pent-2-yn-1-yloxy)-9H-xanthen-9-one]	1.21 ± 0.05 µM	5.24 ± 0.25%		
O=c1c2ccccc2oc2cc(OCCC3CCCCC3)ccc12 [Compound 11, 3-(2-Cyclohexylethoxy)-9H-xanthen-9-one]	1.27 ± 0.13 µM	24.3 ± 2.29%		
C=CCCCOc1ccc2c(=O)c3ccccc3oc2c1 [Compound 13, 3-(Pent-4-en-1-yloxy)-9H-xanthen-9-one]	> 3.57 µM	20.9 ± 3.07%	< 50%	
C=CCCOc1ccc2c(=O)c3ccccc3oc2c1 [Compound 12, 3-(But-3-en-1-yloxy)-9H-xanthen-9-one]	2.09 ± 0.21 µM	5.33 ± 0.17%		
COCCCOc1ccc2c(=O)c3ccccc3oc2c1 [Compound 24, 3-(3-Methoxypropoxy)-9H-xanthen-9-one]	> 3.52 µM	11 ± 1.38%	< 50%	
CC(C)=CCOc1ccc2c(=O)c3ccccc3oc2c1 [Compound 16, 3-((3-Methylbut-2-en-1-yl)oxy)-9H-xanthen-9-one]	1.86 ± 0.15 µM	7.96 ± 1.22%		
CCC(CC)COc1ccc2c(=O)c3ccccc3oc2c1 [Compound 8, 3-(2-Ethylbutoxy)-9H-xanthen-9-one]	1.15 ± 0.19 µM	12.6 ± 1.26%		
C[C@H](CO)COc1ccc2c(=O)c3ccccc3oc2c1 [Compound 29, (R)-3-(3-Hydroxy-2-methylpropoxy)-9H-xanthen-9-one]	> 3.52 µM	13.9 ± 0.96%	< 50%	
C[C@@H](CO)COc1ccc2c(=O)c3ccccc3oc2c1 [Compound 30, (S)-3-(3-hydroxy-2-methylpropoxy)-9H-xanthen-9-one]	> 3.52 µM	5.48 ± 0.31%	< 50%	
CC[C@H](C)COc1ccc2c(=O)c3ccccc3oc2c1 [Compound 7, (S)-3-(2-Methylbutoxy)-9H-xanthen-9-one]	1.74 ± 0.2 µM	24.8 ± 1.96%		
CCCCOc1ccc2c(=O)c3ccccc3oc2c1 [Compound 3, 3-Butoxy-9H-xanthen-9-one]	1.4 ± 0.14 µM	17.6 ± 1.89%		
CC(C)CCCOc1ccc2c(=O)c3ccccc3oc2c1 [Compound 9, 3-((4-Methylpentyl)oxy)-9H-xanthen-9-one]	2.07 ± 0.06 µM	11.8 ± 0.98%		
C=CCCCCOc1ccc2c(=O)c3ccccc3oc2c1 [Compound 14, 3-(Hex-5-en-1-yloxy)-9H-xanthen-9-one]	> 3.4 µM	16.4 ± 1.34%	< 50%	
C#CC(C)Oc1ccc2c(=O)c3ccccc3oc2c1 (centres unmarked) [Compound 20, 3-(But-3-yn-2-yloxy)-9H-xanthen-9-one]	2.24 ± 0.17 µM	5 ± 0.74%		
C=C(C)COc1ccc2c(=O)c3ccccc3oc2c1 [Compound 15, 3-((2-Methylallyl)oxy)-9H-xanthen-9-one]	1.6 ± 0.15 µM	2.33 ± 0.3%		
O=c1c2ccccc2oc2cc(OCCCc3ccccc3)ccc12 [Compound 22, 3-(3-Phenylpropoxy)-9H-xanthen-9-one]	1.22 ± 0.12 µM	15.5 ± 1.93%		
O=c1c2ccccc2oc2cc(OCC3CCC3)ccc12 [Compound 10, 3-(Cyclobutylmethoxy)-9H-xanthen-9-one]	1.61 ± 0.11 µM	7.01 ± 1.16%		
CC#CCOc1ccc2c(=O)c3ccccc3oc2c1 [Compound 18, 3-(But-2-yn-1-yloxy)-9H-xanthen-9-one]	> 3.79 µM	4.53 ± 0.88%	< 50%	
CC(C)COc1ccc2c(=O)c3ccccc3oc2c1 [Compound 5, 3-Isobutoxy-9H-xanthen-9-one]	1.18 ± 0.11 µM	9.78 ± 1.22%		
CC(C)Oc1ccc2c(=O)c3ccccc3oc2c1 [Compound 4, 3-Isopropoxy-9H-xanthen-9-one]	1.41 ± 0.13 µM	20.7 ± 1.75%		
O=c1c2ccccc2oc2cc(OCc3ccccc3)ccc12 [Compound 21, 3-(Benzyloxy)-9H-xanthen-9-one]	0.99 ± 0.19 µM	5.04 ± 0.7%		
COCOCCOc1ccc2c(=O)c3ccccc3oc2c1 [Compound 25, 3-(2-(Methoxymethoxy)ethoxy)-9H-xanthen-9-one]	1.37 ± 0.12 µM	10.3 ± 1.24%		
CC(C)=CCCOc1ccc2c(=O)c3ccccc3oc2c1 [Compound 17, 3-((4-Methylpent-3-en-1-yl)oxy)-9H-xanthen-9-one]	1.06 ± 0.12 µM	20.9 ± 3.03%		
O=c1c2ccccc2oc2cc(OCCCCc3ccccc3)ccc12 [Compound 23, 3-(4-Phenylbutoxy)-9H-xanthen-9-one]	0.88 ± 0.04 µM	9.19 ± 0.55%		mixed inhibition mechanism; also recorded: mixed-mode inhibition
CCCOc1ccc2c(=O)c3ccccc3oc2c1 [Compound 2, 3-Propoxy-9H-xanthen-9-one]	1.86 ± 0.04 µM	11.9 ± 1.74%		
O=c1c2ccccc2oc2cc(O)ccc12 [Compound 1, 3-hydroxyxanthone]	2.39 ± 0.11 µM	6.55 ± 0.82%		
COC(=O)COc1ccc2c(=O)c3ccccc3oc2c1 [Compound 27, Methyl 2-((9-oxo-9H-xanthen-3-yl)oxy)acetate]	1.28 ± 0.13 µM	7.69 ± 0.34%		
CC(C)CCOc1ccc2c(=O)c3ccccc3oc2c1 [Compound 6, 3-(Isopentyloxy)-9H-xanthen-9-one]	1.84 ± 0.21 µM	5.47 ± 0.61%		
CCOC(=O)COc1ccc2c(=O)c3ccccc3oc2c1 [Compound 28, Ethyl 2-((9-oxo-9H-xanthen-3-yl)oxy)acetate]	0.88 ± 0.15 µM	4.11 ± 0.35%		mixed inhibition mechanism; also recorded: mixed-mode inhibition
COCCOCCOc1ccc2c(=O)c3ccccc3oc2c1 [Compound 26, 3-(2-(2-Methoxyethoxy)ethoxy)-9H-xanthen-9-one]	0.97 ± 0.06 µM	17.8 ± 1.6%		
